{"source": "patent US12357645B2", "about": "“Drug combination for treatment of gastric cancer” (priority 2023, dated 2025)", "origin": "cited, not measured here", "key": {"[1]": {"details": "cited from earlier work"}, "[2]": {"tested_on": "gastric cancer", "details": "by stimulating expression of p53 and p21 (waf1/cip1); cited from earlier work"}}}
{"smiles": "CC(C)[C@]12O[C@H]1[C@@H]1O[C@]13[C@]1(O[C@H]1C[C@H]1C4=C(CC[C@@]13C)C(=O)OC4)[C@@H]2O", "note": "[triptolide, reference compound]", "values": [{"measurement": "aqueous solubility", "setting": "[1]", "value": "limited aqueous solubility"}, {"measurement": "cell growth and apoptosis", "setting": "[2]", "value": "inhibit cell growth and induce apoptosis"}]}
